Assay results as given in patent publication US20010053772A1, “Aza analogues of alkyl lysophospholipids exert immunomodulatory effects” (priority 2000, published 2001).

Key:
TNF-α [1] = settings: cited from earlier work
TNF-α [2] = test: TNF-α secretion by human PBM, ELISA of supernatants; assay type: cell-based; settings: for effect on BN52207 induced secretion of TNF-α: PBM 18 hours with BN52207 (5 μg/ml), emetine (1 μg/ml), cycloheximide (5 μg/ml)
Description: Also referring to FIG. 2, the AALP analogues, are therein shown to have immunoregulatory properties. The effect of AALP on the secretion of TNF-α, IL-1β, IL-6, and IL-10 cytokines by both resting and LPS and IFN-γ activated human peripheral blood derived monocytes. Human PBM were incubated for 18 hours at 37° C. in the absence or in the presence of different concentrations of AALP analogues. The cell-free supernatants were harvested and clarified by centrifugation and assessed for the presence of TNF-α, IL-1β, and IL-6 by Enzyme Linked Immunosorbant Assay (ELISA). For TNF-α, there was stimulation of secretion by all compounds at concentrations >0.6 μg/ml and up to 10 μg/ml. […] Similar findings were also obtained for IL-1β. There was no significant difference in the levels of stimulated TNF-α and IL-1β among the five AALP compounds. In contrast to TNF-α and IL-1β, there was no significant stimulation of IL-6 above background levels upon stimulation by any of the five AALP analogues. However, there was significant inhibition of IL-6 secretion at 10 μg/ml and the levels were below the spontaneous secretion of IL-6.
As a result of the similarity of results of the five AALP on PBM, BN52207 was selected to conduct the following experiments. However, it is to be understood that any other AALP analogue may be used to obtain a similar result. Now referring to FIG. 3, human PBM were incubated for 18 hours at 37° C. in the presence or absence of different concentration of BN52207. The PBM were left untreated or treated with IFN-γ (500 U/ml) or LPS (1 μg/ml) added at the initiation of the culture. The supernatants were harvested, clarified by centrifugation, and stored at −70° C. The levels of TNF-α with IFN-γ (FIG. 3A), LPS (FIG. 3B), or BN+LPS (FIG. 3C) activated PBM were assessed by ELISA.
BN52207 potentiated the secretion of TNF-α from IFN-γ-activated PBM and LPS-activated PBM. […] Now referring to FIG. 4, to confirm de novo synthesis of TNF-α mRNA PBM were treated with protein synthesis inhibitors. PBM were incubated for 18 hours with BN52207 (5 μg/ml) in the absence or presence of LPS (1 μg/ml), LPS (1 μg/ml) plus pentoxifylline (50 μg/ml), emetine (1 μg/ml), and cycloheximide (5 μg/ml). The cell-free supernatants were collected and clarified by centrifugation and the level of TNF-α in the supernatants was assessed by ELISA.
Now referring to FIGS. 8 A, B, and C, the kinetics of induction/inhibition of cytokine secretion by AALP were examined. […]
Human peripheral blood was obtained from normal volunteers as per HSPC guidelines of UCLA. […] The adherent cells prepared by this procedure were primarily monocytes (>90%) as determined by esterase staining and flow cytometry using markers for monocytes, T cells, B cells, and NK cells. […]

## CC1C(=O)OC2C(O)C34C5CC(C(C)(C)C)C36C(OC(=O)C6O)OC4(C(=O)O5)C12O (centres unmarked) [BN52021]
TNF-α [1]
  effect on TNF-α augmented production by PAF in monocytes: blocks

## C[C@@H]1C[C@@H]([C@H](O)CC2CC(=O)NC(=O)C2)C(=O)[C@@H](C)C1 [CHX, cycloheximide]
TNF-α [2]; FIG. 4
  effect on BN52207 induced secretion of TNF-α: inhibited

## IFN-γ: recombinant interferon-γ, a gift from Genentech
TNF-α [2]; IFN-γ (500 U/ml), 18 hours, FIG. 3A
  TNF-α secretion on stimulation of PBM with IFN-γ alone: results in the secretion of TNF-α

## CC(=O)CCCCn1c(=O)c2c(ncn2C)n(C)c1=O [pentoxifylline]
TNF-α [2]; PBM 18 hours, BN52207 (5 μg/ml) + LPS (1 μg/ml) + pentoxifylline (50 μg/ml), FIG. 4
  effect on BN enhanced stimulation of TNF-α secretion by LPS stimulated PBM: inhibited

## CC[C@H]1CN2CCc3cc(OC)c(OC)cc3[C@@H]2C[C@@H]1C[C@H]1NCCc2cc(OC)c(OC)cc21 [emetine]
TNF-α [2]; FIG. 4
  effect on BN52207 induced secretion of TNF-α: inhibited
